US10662214B2, “Compound of 4′-thionucleoside, as well as preparation method therefor, pharmaceutical composition thereof and application thereof” (Sichuan Kelun-Biotech Biopharmaceutical Co., Ltd., priority 2015, dated 2020)

Columns and labels:
[1] = test system: gastric cancer cell NCI-N87; experiment: Subcutaneous xenograft of gastric cancer cell NCI-N87 in nude mice (Experimental example 2); type: in vivo; settings: 190 μmol/kg i.v.
Protocol: (§2) This experimental example was used for the evaluation of the effectiveness of the compounds of the present invention in inhibiting the proliferation of a subcutaneous xenograft of human tumor cells via various routes of administration.
(§3) Gastric cancer cell NCI-N87 and colorectal cancer cell HCT-116 were cultured as a monolayer in vitro, and the culture conditions were RPMI-1640 culture medium supplemented with 10% heat inactivated Fetal Bovine Serum, and incubation in an incubator at 37° C. and 5% CO2. The cells were subcultured by treatment with trypsin-EDTA digestion.
(§4) The tumor cells were respectively inoculated into BALB/c nude mice (SPF grade, female, 16-18 g per mouse, about 6 to 8 weeks old, Beijing Vital River Laboratory Animal Technology Co., Ltd.).
(§5) Each nude mouse was inoculated with about 2.5×10^6 HCT-116 tumor cells or about 3×10^6 NCI-N87 tumor cells (suspended in 0.1 ml PBS) subcutaneously into the underarm of the right flank. After the inoculated tumor reached a size in the range of about 100-200 mm^3, nude mice bearing a tumor that is too small (smaller than 100 mm^3) or too big (bigger than 200 mm^3) were removed from the study, and the remaining ones were randomized into groups.
(§6) Sulfobutyl ether-β-cyclodextrin (SE-β-CD) was formulated with physiological saline to form a 10% solution, which was then filtered through a 0.22 μm sterile filter for later use.
(§7) An appropriate amount of the test compound was weighted, and added in DMSO. The resultant solution was vortexed to uniformity, and the 10% solution of SE-β-CD was added according to the desired concentration. The solution was vortexed to uniformity, and the final concentration of DMSO was adjusted to 5%. A gemcitabine injection (a positive control) was directly diluted to the desired concentration with physiological saline. A 10% solution of SE-β-CD containing 5% DMSO was prepared as a vehicle control.
(§8) Mice bearing a tumor having a volume of about 100-200 mm^3 were selected, and randomized into 5 groups (8 mice per group). The dosing volume was 10 mL/kg, and the administration (intravenous administration (i.v.) or oral administration (p.o.)) was performed twice a week for 3 weeks. The tumor volume and body weight were measured twice a week after the administration, and the mortality of animals was observed every day.
(§9) The diameter of a tumor was measured, and the tumor volume was calculated according to the following formula: V=0.5a×b^2, wherein a and b respectively represent the major and minor diameters of a tumor. The anti-tumor effect was evaluated by the tumor growth inhibition (TGI) (%). TGI (%)=[1−(VT-end−VT-start)/(VC-end−VC-start)]*100%
(§10) The body weight of an animal was measured twice a week.

[2] = test system: human pancreatic cancer cell BxPC-3; experiment: Subcutaneous xenograft of human pancreatic cancer cell BxPC-3 in a nude mouse (Experimental example 3); type: in vivo; settings: once every 3 days, 4 times
Protocol: According to methods similar to those in sections 1 to 2 in Experimental example 2, pancreatic cancer cell BxPC-3 was cultured as a monolayer in vitro, and inoculated, and the animals were randomized into groups.
An appropriate amount of the test compound was weighted out, and added in DMSO. The 10% solution of SE-β-CD was then added according to the desired concentration, and the final concentration of DMSO was adjusted to 2.5%. A gemcitabine injection (a positive control) was diluted to the desired concentration with physiological saline. A 10% solution of SE-β-CD containing 2.5% DMSO was prepared as a vehicle control.
Mice bearing a tumor having a volume of 100-200 mm^3 were selected, and randomized into 14 groups (7 mice per group). The dosing volume was 20 mL/kg, and the administration (intravenous administration (i.v.)) was performed once every 3 days, for 4 times in total.
(§1) For statistical calculations of the test indexes, please refer to Experimental example 2.

[3] = test system: human pancreatic cancer cell Capan-1; experiment: Subcutaneous xenograft of human pancreatic cancer cell Capan-1 in a nude mouse (Experimental example 5); type: in vivo; settings: once every 3 days, 6 times
Protocol: According to methods similar to those in sections 1 to 2 in Experimental example 2, pancreatic cancer cell Capan-1 was cultured as a monolayer in vitro, and inoculated, and the animals were randomized into groups.
Samples were prepared as described in Experimental example 2.
Mice bearing a tumor having a volume of 100-200 mm^3 were selected, and randomized into 7 groups (7 mice per group).
as §1

[4] = test system: human pancreatic cancer cell BxPC-3; experiment: Subcutaneous xenograft of human pancreatic cancer cell BxPC-3 in a nude mouse (Experimental example 4); type: in vivo
Protocol: According to methods similar to those in sections 1 to 3 in Experimental example 2, pancreatic cancer cell BxPC-3 was cultured as a monolayer in vitro, and inoculated; the animals were randomized into groups; and samples were prepared.
Mice bearing a tumor having a volume of 80-250 mm^3 were selected, and randomized into 6 groups (8 mice per group). The dosing volume was 10 mL/kg.
as §1
The test results obtained by administrating (intravenous administration (i.v.) or oral administration (p.o.)) once a week for 3 weeks are shown in table 7-2.

[5] = test system: human pancreatic cancer cell PANC-1; experiment: Subcutaneous xenograft of human pancreatic cancer cell PANC-1 in a nude mouse (Experimental example 6); type: in vivo; settings: 0.06 mmol/kg i.v., once every 3 days, 6 times
Protocol: This test was performed according to experimental example 5.
Mice bearing a tumor having a volume of 100-200 mm^3 were selected, and randomized into 4 groups (6 mice per group).

[6] = test system: colorectal cancer cell HCT-116; experiment: Subcutaneous xenograft of colorectal cancer cell HCT-116 in nude mice (Experimental example 2); settings: 190 μmol/kg i.v.
Protocol: as §2, §3, §4, §5, §6, §7, §8, §9, §10

[7] = mice, significant dose administered intravenously; cited from earlier work

## Nc1ccn([C@@H]2O[C@H](CO)[C@@H](O)C2(F)F)c(=O)n1 [Gemcitabine injection, Gemcitabine, reference compound]
[1]; twice a week for 3 weeks
  TGI (%): 107%
[1]; animals out of 8
  Tumor regression, CR (complete tumor regression): 2/8 CR,
  Tumor regression, PR (partial tumor regression): 6/8 PR
[2]; 0.04 mmol/kg i.v.
  TGI (%): −2.2%
[2]; 0.12 mmol/kg i.v.
  TGI (%): 28.9%
[2]; 0.24 mmol/kg i.v.
  TGI (%): 45.5%
[3]; 0.02 mmol/kg i.v.
  TGI (%): 15.4%
[3]; 0.19 mmol/kg i.v.
  TGI (%): 78.9%
[4]; 0.12 mmol/kg i.v., twice a week for 3 weeks
  TGI (%): 23.6%
[4]; 0.23 mmol/kg i.v., once a week for 3 weeks
  TGI (%): 23.6%
[5]
  TGI (%): 64.4%
[6]
  Mortality: 0
[6]; twice a week for 3 weeks
  TGI (%): 92%
[6]; 14 days after last administration
  Tumor regression: 0
[7]
  death or gastrointestinal toxicity after intravenous dosing: no death or gastrointestinal toxicity
